For one compound, Activity results are on record in ChEMBL document CHEMBL3769377, “A synthesis, in silico, in vitro and in vivo study of thieno[2,3-b]pyridine anticancer analogues” (Medchemcomm, 2015).

Assay [1] addresses Tyrosine-protein kinase receptor UFO (Homo sapiens) (UniProt P30530). The assay is described as follows: Inhibition of human recombinant AXL assessed as residual activity at 10 uM after 1 hr by qPCR analysis relative to control.
Assay [2] concerns Mast/stem cell growth factor receptor Kit (Homo sapiens), P10721 [D816V]. The assay is described as follows: Inhibition of human recombinant KIT D816V mutant assessed as residual activity at 10 uM after 1 hr by qPCR analysis relative to control. (In general: Quantitative PCR measures a nucleic acid by following its amplification.)
For assay [3], the target named is Tyrosine-protein kinase ZAP-70 (Homo sapiens) (UniProt P43403). As to the kind of experiment: Inhibition of human recombinant ZAP70 assessed as residual activity at 10 uM after 1 hr by qPCR analysis relative to control.
The target in assay [4] is MAP kinase-activated protein kinase 2 (Homo sapiens) (UniProt P49137). The assay is described as follows: Inhibition of human recombinant MAPKAPK2 assessed as residual activity at 10 uM after 1 hr by qPCR analysis relative to control.
For assay [5], the target named is Fibroblast growth factor receptor 3 (Homo sapiens) (UniProt P22607). The assay is described as follows: Inhibition of human recombinant FGFR3 assessed as residual activity at 10 uM after 1 hr by qPCR analysis relative to control.
For assay [6], the target named is TGF-beta receptor type-1 (Homo sapiens) (UniProt P36897). As to the kind of experiment: Inhibition of human recombinant TGFBR1 assessed as residual activity at 10 uM after 1 hr by qPCR analysis relative to control.
Assay [7] concerns the target Cyclin-dependent kinase 3 (Homo sapiens) (UniProt Q00526). As to the kind of experiment: Inhibition of human recombinant CDK3 assessed as residual activity at 10 uM after 1 hr by qPCR analysis relative to control.
Assay [8] addresses Glycogen synthase kinase-3 beta (Homo sapiens) (UniProt P49841). As to the kind of experiment: Inhibition of human recombinant GSK3B assessed as residual activity at 10 uM after 1 hr by qPCR analysis relative to control.
The target of assay [9] is Insulin receptor (Homo sapiens) (UniProt P06213). As to the kind of experiment: Inhibition of human recombinant INSR assessed as residual activity at 10 uM after 1 hr by qPCR analysis relative to control.
For assay [10], the target named is Macrophage colony-stimulating factor 1 receptor (Homo sapiens) (UniProt P07333). The assay is described as follows: Inhibition of human recombinant CSF1R assessed as residual activity at 10 uM after 1 hr by qPCR analysis relative to control.
The target in assay [11] is Phosphatidylinositol 4,5-bisphosphate 3-kinase catalytic subunit gamma isoform (Homo sapiens) (UniProt P48736). The assay is described as follows: Inhibition of human recombinant PIK3CG assessed as residual activity at 10 uM after 1 hr by qPCR analysis relative to control.
Assay [12] addresses Mitogen-activated protein kinase 10 (Homo sapiens) (UniProt P53779). As to the kind of experiment: Inhibition of human recombinant JNK3 assessed as residual activity at 10 uM after 1 hr by qPCR analysis relative to control.
Assay [13] deals with Tyrosine-protein kinase ABL1 (Homo sapiens) (UniProt P00519). As to the kind of experiment: Inhibition of human recombinant non-phosphorylated ABL1 assessed as residual activity at 10 uM after 1 hr by qPCR analysis relative to control.
Chain of Tyrosine-protein kinase ABL1 (Homo sapiens) (P00519 whole entry): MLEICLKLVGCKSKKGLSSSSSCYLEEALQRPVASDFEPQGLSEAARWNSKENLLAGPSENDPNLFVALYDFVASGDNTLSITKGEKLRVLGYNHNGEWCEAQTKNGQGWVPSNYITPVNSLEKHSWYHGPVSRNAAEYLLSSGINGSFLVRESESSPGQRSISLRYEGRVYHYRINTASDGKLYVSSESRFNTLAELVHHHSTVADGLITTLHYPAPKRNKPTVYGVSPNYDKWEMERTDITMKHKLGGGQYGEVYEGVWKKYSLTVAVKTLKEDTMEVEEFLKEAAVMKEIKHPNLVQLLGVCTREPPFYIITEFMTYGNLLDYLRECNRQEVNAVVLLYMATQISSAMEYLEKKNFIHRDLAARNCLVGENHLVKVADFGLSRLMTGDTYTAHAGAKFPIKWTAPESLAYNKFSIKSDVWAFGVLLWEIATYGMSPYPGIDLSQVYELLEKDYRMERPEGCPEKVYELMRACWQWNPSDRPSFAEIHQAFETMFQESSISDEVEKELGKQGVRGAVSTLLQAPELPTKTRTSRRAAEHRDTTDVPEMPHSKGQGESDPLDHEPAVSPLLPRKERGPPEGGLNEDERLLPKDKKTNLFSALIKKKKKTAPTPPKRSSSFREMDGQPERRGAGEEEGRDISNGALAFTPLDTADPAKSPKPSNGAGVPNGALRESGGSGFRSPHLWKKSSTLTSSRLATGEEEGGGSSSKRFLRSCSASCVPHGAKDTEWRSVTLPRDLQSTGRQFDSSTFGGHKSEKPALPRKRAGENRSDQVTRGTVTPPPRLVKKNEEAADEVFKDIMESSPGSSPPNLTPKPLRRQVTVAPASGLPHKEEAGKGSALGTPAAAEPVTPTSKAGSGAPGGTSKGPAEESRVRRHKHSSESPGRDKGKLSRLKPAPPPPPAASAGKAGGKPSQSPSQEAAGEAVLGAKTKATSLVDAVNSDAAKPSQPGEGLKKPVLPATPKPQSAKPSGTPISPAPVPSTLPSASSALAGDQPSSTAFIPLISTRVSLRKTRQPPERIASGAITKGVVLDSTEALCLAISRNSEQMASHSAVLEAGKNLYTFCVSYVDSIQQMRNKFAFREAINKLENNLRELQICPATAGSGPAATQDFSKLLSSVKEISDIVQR

Chain of TGF-beta receptor type-1 (Homo sapiens) (P36897 whole entry): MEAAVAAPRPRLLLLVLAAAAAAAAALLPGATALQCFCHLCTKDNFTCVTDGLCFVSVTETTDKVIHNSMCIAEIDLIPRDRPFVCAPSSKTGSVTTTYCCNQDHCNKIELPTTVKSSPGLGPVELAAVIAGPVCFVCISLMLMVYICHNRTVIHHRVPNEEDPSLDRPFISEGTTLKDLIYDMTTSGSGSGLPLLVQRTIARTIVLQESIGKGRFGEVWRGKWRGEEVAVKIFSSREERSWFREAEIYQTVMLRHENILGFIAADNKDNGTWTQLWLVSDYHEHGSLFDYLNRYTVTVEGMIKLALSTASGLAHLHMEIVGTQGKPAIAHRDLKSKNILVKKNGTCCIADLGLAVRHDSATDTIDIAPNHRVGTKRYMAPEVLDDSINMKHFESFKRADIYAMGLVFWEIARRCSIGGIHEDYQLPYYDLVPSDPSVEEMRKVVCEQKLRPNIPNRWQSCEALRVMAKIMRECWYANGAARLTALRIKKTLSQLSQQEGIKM
Chain of Fibroblast growth factor receptor 3 (Homo sapiens) (P22607 23-806 limits assumed): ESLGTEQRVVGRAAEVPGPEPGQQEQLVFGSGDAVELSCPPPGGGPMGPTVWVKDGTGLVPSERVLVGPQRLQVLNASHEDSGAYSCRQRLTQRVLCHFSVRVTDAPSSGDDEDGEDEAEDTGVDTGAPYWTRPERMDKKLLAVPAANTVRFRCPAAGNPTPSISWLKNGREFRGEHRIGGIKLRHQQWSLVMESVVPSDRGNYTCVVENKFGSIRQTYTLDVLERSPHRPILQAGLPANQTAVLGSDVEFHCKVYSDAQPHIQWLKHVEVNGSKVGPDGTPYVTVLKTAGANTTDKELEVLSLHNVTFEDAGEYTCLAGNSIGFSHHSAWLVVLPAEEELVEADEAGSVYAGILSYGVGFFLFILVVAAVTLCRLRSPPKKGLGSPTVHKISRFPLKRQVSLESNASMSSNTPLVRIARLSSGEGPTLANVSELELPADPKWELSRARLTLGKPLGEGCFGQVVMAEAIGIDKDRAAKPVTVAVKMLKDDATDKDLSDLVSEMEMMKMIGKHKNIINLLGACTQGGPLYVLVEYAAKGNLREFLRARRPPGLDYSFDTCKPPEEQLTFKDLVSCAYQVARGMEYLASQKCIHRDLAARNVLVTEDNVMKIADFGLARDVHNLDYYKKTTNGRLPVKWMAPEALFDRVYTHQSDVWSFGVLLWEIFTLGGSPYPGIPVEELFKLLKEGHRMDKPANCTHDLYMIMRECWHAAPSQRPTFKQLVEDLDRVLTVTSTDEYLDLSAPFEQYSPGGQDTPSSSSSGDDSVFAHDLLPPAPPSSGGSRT
Chain of Tyrosine-protein kinase ZAP-70 (Homo sapiens) (P43403 whole entry): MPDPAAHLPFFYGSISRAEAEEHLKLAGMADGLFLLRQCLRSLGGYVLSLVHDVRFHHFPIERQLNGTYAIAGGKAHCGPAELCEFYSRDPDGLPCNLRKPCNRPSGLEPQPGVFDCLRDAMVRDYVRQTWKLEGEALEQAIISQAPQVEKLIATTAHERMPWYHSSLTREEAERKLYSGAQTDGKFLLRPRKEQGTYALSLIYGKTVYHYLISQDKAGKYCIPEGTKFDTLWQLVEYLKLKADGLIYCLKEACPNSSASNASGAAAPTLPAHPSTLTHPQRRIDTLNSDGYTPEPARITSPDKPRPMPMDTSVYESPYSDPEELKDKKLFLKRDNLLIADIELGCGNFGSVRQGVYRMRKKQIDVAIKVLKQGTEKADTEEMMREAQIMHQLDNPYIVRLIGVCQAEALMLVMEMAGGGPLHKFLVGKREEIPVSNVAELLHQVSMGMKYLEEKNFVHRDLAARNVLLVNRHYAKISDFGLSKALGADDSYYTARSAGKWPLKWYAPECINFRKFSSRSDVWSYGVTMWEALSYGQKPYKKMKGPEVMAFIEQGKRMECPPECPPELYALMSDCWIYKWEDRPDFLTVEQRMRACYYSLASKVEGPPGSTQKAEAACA
Chain of Macrophage colony-stimulating factor 1 receptor (Homo sapiens) (P07333 whole entry, canonical isoform): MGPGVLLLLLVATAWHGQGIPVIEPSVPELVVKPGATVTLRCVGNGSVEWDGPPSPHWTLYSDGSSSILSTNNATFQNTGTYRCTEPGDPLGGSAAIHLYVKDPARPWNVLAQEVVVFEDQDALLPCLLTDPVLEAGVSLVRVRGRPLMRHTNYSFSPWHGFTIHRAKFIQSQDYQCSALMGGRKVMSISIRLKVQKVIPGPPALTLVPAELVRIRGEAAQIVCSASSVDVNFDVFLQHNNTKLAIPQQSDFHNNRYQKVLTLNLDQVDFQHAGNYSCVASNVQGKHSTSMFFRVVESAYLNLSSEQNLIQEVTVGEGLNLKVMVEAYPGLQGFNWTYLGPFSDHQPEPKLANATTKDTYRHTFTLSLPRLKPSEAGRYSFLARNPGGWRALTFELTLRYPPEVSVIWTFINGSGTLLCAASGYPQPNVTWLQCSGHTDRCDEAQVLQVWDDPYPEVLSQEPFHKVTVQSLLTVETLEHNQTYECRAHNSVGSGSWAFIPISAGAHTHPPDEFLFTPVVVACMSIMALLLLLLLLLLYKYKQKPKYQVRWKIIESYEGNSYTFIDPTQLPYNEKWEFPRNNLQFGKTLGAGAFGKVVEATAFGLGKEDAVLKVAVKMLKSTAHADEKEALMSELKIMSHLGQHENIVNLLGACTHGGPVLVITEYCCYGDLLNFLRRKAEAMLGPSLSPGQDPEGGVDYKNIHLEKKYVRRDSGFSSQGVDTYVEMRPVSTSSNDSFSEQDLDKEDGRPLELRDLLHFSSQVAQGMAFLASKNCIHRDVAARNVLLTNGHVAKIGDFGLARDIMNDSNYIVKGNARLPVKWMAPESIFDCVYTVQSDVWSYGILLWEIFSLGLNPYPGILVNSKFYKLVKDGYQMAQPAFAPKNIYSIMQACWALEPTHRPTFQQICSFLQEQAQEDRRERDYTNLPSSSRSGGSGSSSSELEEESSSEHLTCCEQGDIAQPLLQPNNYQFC
Chain of Mitogen-activated protein kinase 10 (Homo sapiens) (P53779 whole entry): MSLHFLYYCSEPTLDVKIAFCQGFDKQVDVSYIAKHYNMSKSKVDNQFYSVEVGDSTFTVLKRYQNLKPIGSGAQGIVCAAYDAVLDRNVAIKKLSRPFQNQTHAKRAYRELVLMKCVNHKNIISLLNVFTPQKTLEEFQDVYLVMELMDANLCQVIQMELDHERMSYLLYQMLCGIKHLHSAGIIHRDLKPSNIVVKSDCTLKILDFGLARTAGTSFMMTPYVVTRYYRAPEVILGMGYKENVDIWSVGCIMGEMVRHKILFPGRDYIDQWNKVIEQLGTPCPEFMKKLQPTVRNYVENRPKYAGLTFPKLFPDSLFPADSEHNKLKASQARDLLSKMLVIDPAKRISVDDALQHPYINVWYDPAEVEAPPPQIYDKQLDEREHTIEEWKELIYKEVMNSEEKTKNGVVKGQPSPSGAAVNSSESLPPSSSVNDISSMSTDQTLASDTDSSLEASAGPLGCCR
Chain of Glycogen synthase kinase-3 beta (Homo sapiens) (P49841 whole entry, looked up): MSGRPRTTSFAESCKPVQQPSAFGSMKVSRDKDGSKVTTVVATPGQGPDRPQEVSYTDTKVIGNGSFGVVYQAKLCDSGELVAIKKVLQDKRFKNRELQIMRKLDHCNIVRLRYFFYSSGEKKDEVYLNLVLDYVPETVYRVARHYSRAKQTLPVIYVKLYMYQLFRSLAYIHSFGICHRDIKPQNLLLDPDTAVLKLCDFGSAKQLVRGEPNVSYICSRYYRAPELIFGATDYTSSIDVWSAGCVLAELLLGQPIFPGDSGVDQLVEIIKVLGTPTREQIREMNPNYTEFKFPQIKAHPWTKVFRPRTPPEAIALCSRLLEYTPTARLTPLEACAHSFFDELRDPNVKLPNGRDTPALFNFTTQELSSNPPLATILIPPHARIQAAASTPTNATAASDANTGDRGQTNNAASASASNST

For the compound `Cc1c(Cl)cccc1NC(=O)c1sc2nc3c(cc2c1N)C(=O)CC3`, the Activity in assay [1] came out at 100%; in assay [2] it was 93%; in assay [3], 95%; in [4], 100%; in assay [5], 100%; in [6], 100%. For the same compound, the Activity came out at 100% in [7]; 92% in [8]; 97% in assay [9]; 100% in assay [10]; 100% in assay [11]; 95% in assay [12]. Further, in [13], the Activity came to 98%.
